Test [1] deals with EGFR (d746-750 T790M C797S) (Homo sapiens (Human), UniProt P00533, C797S/DEL746-750/T790M). Briefly: Biochemical EGFR inhibition assay (TR-FRET, poly-GT substrate), EGFR d746-750 T790M C797S. As for the experimental part: Biochemical EGFR Inhibition Assays
Initially, the inhibitory effect of compounds according to the invention is measured in biochemical assays which measure the phosphorylation activity of EGFR enzyme forms on poly-GT substrate in the presence of different concentrations of ATP (5 μM and 100 μM final assay concentration).
The following enzyme forms of EGFR are representative examples that can be used in these assays at the given concentrations:
For the chosen highest assay concentration of 100 μM, 150 nL of compound solution is transferred from a 10 mM DMSO compound stock solution. A series of eleven fivefold dilutions per compound is transferred to the assay plate, compound dilutions are tested in duplicates. DMSO is added as backfill to a total volume of 150 nL. The assay runs on a fully automated robotic system.
These biochemical EGFR enzyme form compound dose-response assays quantify the kinase activity via phosphorylation of a tagged poly-GT substrate. The results of the assay are provided as IC50 values.
In general terms: Time-resolved FRET reads energy transfer from a long-lived donor to a nearby acceptor.

Test [2] addresses EGFR (mutated) 695-1022, T790M, C797S, L858R (Homo sapiens (Human), UniProt P00533, C797S/L858R/T790M). The experiment in a line: Biochemical EGFR inhibition assay (TR-FRET, poly-GT substrate), EGFR T790M C797S L858R. Summed up: (§1)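 Phosphorylation of tagged poly-GT substrate by EGFR forms measured at 5 μM and 100 μM ATP (final). Top compound concentration 100 μM, eleven fivefold dilutions, in duplicate. Results given as IC50.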

The target of a further test is EGFR wt (Homo sapiens (Human), UniProt P00533). The experiment in a line: Biochemical EGFR inhibition assay (TR-FRET, poly-GT substrate), EGFR wt. Summed up: as §1
The target in test [3] is EGFR del19 T790M C797S protein in Ba/F3 cells (Homo sapiens, UniProt P00533, C797S/DEL746-750/T790M). Briefly: pEGFR assay (AlphaScreen Surefire, EGFR Tyr1068 phosphorylation). The test is classed as cell-based. The method, boiled down: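 Transduced Ba/F3 cells, puromycin-selected and grown IL-3 independent, were treated with compound at 60.000 cells/well for 4 h at 37° C. Lysis followed for 20 min at room temperature, and Tyr1068 phospho-EGFR in lysate was detected after 2 h dark incubation. Results are IC50 values.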
(In general: Alpha assays give light when donor and acceptor beads are brought close together.)

The mark [4] stands for this setting: read-out: LR_TM_CS (5 μM ATP) IC50, 5 μM ATP.
[5] abbreviates: read-out: LR_TM_CS (100 μM ATP) IC50, 100 μM ATP.
Setting [6] is: read-out: wt (5 μM ATP) IC50, 5 μM ATP.
Where [7] appears, read: read-out: wt (100 μM ATP) IC50, 100 μM ATP.

Among the data in patent publication US11174245B2, “Benzimidazole compounds and derivatives as EGFR inhibitors” (Boehringer Ingelheim International GmbH, priority 2018, dated 2021) are IC50 values, retold here.

Where two headings read alike, the source gives them in different places.

Sequence of EGFR del19 T790M C797S protein in Ba/F3 cells (P00533 with tags, fused parts or gaps C797S/DEL746-750/T790M limits assumed): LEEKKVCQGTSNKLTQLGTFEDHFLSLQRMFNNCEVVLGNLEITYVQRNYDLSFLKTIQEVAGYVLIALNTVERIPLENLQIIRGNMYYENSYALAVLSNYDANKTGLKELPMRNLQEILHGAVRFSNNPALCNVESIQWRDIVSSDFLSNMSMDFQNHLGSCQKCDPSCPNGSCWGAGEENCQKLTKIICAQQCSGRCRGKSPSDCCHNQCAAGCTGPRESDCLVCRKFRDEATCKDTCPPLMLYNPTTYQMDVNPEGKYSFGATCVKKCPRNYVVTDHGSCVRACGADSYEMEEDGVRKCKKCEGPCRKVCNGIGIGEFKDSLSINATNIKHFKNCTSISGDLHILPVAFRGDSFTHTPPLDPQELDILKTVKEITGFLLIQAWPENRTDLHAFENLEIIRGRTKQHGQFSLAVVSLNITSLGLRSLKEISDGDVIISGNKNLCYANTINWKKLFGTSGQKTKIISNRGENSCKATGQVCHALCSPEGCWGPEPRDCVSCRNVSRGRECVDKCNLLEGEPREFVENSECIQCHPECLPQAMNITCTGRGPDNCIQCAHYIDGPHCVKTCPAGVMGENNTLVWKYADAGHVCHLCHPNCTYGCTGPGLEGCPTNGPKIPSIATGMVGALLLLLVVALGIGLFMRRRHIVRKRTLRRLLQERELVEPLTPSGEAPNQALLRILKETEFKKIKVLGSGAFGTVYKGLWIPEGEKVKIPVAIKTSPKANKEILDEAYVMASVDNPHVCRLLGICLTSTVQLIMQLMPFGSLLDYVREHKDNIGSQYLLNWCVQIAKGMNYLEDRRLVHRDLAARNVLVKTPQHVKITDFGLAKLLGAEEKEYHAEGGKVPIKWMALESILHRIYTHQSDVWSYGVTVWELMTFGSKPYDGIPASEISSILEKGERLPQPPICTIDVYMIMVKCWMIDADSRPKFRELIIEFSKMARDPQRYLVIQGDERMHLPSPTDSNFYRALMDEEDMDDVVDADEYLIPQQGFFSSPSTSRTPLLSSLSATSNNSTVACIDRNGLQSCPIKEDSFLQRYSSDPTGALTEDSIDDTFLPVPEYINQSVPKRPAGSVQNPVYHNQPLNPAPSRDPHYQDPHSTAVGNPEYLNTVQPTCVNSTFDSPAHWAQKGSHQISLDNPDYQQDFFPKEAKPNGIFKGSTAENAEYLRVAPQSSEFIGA
Sequence of EGFR (mutated) 695-1022, T790M, C797S, L858R (P00533 695-1022 T790M/C797S/L858R): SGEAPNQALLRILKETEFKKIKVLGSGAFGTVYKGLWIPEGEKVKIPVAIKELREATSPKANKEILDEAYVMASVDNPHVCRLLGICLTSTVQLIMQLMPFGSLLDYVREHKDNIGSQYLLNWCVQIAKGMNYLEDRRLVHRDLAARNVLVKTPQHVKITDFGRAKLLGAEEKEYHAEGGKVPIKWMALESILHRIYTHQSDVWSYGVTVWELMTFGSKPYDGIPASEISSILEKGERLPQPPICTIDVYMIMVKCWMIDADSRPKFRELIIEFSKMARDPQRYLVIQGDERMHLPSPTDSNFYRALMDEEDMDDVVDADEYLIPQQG
Sequence of EGFR wt (P00533 25-1210): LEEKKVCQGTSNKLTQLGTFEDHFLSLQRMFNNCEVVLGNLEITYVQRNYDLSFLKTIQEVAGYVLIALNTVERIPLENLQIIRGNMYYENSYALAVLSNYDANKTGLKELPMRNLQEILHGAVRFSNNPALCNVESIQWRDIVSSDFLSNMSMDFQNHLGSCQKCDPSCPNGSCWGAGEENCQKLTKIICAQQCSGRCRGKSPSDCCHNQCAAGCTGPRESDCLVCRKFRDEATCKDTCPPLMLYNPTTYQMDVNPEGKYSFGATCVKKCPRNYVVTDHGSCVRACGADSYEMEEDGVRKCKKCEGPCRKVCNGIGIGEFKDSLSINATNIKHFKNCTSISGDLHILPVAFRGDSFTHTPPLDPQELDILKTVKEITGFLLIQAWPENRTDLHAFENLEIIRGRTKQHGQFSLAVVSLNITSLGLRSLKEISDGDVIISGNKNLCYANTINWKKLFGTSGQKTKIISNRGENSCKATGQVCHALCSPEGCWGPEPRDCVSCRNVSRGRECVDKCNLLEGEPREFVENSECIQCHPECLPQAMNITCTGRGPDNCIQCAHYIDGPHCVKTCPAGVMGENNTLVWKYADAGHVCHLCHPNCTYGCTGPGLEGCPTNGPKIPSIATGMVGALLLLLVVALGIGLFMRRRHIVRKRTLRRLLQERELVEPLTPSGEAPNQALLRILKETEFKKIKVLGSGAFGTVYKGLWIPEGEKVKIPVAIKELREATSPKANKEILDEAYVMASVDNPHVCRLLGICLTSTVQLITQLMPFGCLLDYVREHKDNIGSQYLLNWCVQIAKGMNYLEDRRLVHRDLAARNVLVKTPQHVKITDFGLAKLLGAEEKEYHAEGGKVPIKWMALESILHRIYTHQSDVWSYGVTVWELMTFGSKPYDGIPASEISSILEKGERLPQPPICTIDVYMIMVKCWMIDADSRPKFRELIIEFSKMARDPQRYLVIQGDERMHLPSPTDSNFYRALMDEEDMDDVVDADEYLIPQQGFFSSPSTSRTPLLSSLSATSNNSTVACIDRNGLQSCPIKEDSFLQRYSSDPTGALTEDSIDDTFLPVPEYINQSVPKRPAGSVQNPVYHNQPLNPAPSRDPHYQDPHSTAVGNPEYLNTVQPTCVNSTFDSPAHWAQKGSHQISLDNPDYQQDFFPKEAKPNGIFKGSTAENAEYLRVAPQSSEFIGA
Sequence of EGFR (d746-750 T790M C797S) (P00533 other isoform, or with tags, fused parts or gaps T790M/C797S/del 1-694/del 746-750 limits assumed): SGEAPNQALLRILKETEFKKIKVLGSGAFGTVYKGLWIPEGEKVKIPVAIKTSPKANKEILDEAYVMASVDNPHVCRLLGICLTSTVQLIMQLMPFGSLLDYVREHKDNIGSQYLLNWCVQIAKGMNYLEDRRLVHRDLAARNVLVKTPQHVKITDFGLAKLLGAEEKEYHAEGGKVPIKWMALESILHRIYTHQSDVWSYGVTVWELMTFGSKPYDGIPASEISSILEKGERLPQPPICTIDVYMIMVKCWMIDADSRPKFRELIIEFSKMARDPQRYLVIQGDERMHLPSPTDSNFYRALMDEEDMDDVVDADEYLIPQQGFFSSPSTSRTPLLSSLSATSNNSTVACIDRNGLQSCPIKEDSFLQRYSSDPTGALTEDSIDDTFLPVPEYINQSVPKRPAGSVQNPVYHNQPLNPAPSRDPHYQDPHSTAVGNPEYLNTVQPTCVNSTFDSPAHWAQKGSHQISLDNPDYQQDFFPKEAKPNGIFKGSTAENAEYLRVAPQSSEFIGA

Turning to `Cn1cc(-c2cc(C(=O)/N=c3\[nH]c4ccccc4n3[C@H]3CC[C@H](O)CC3)ccn2)cn1` [I-036], the IC50 was determined as 4 nM in test [1] (100 μM ATP); 1.6 nM in test [2] (setting [4]); 40.1 nM in test [2] (setting [5]); 407 nM on EGFR wt (setting [6]); 1250 nM on EGFR wt (setting [7]); 3 nM in test [3].
In the case of `CN1CCC(c2ccc3c(c2)[nH]/c(=N\C(=O)c2ccnc(-c4cnn(C)c4)c2)n3CC(C)(C)O)CC1=O` (stereo not drawn) [I-035], the IC50 amounted to 5.6 nM in test [1] (100 μM ATP), 79.3 nM in test [2] (setting [5]), 6670 nM on EGFR wt (setting [7]) and 79 nM in test [3].
The like results for `Cn1cc(-c2cc(C(=O)/N=c3\[nH]c4ccccc4n3C3CCCC3)ccn2)cn1` [I-003] were, in that order, 9.9 nM, 61.7 nM, 4080 nM and 29 nM.
The like results for `Cc1nn(C)cc1-c1cc(C(=O)/N=c2\[nH]c3ccccc3n2C2CCCC2)ccn1` [I-005] were, in that order, 14.2 nM, 105 nM, 236 nM and 11 nM.
The like results for `COC(=O)Cc1ccc2c(c1)[nH]/c(=N\C(=O)c1ccnc(-c3cnn(C)c3)c1)n2CC(C)(C)O` [I-055] were, in that order, 7.3 nM, 86.9 nM, 26300 nM and 10 nM.
On to `Cn1cc(-c2cc(C(=O)/N=c3\[nH]c4ccccc4n3C3CCC3)ccn2)cn1` [I-019], for which the concentration for half-maximal inhibition (IC50) in test [1] (100 μM ATP) stood at 26.3 nM; in test [2] (setting [5]), 102 nM; on EGFR wt (setting [7]), 4370 nM; in test [3], 37 nM.
`Cn1cc(-c2cc(C(=O)/N=c3\[nH]c4cc(C5CCCOC5)ccc4n3CC(C)(C)O)ccn2)cn1` (stereo not drawn) [I-053]: the IC50 in test [1] (100 μM ATP) was determined as 8.7 nM; in test [2] (setting [5]), 94.1 nM; on EGFR wt (setting [7]), 5740 nM; in test [3], 2 nM.
Take `Cc1ccc2[nH]/c(=N\C(=O)c3ccnc(-c4cnn(C)c4)c3)n(CC(C)(C)O)c2c1` [I-034]: the IC50 in test [1] (100 μM ATP) is 22.8 nM; in test [2] (setting [5]), 196 nM; on EGFR wt (setting [7]) it was 3950 nM; in test [3], 21 nM.
The like results for `CC(C)(O)Cn1/c(=N/C(=O)c2ccnc(-n3cnc4ccccc43)c2)[nH]c2ccccc21` [I-039] were, in that order, 36 nM, 508 nM, above 100000 nM and 9 nM.
The like results for `CN(C)Cc1ccc2c(c1)[nH]/c(=N\C(=O)c1ccnc(-c3cnn(C)c3)c1)n2CC(C)(C)O` [I-029] were, in that order, 72.4 nM, 190 nM, 14800 nM and 58 nM.
Take `Cc1ccc2c(c1)[nH]/c(=N\C(=O)c1ccnc(-c3cnn(C)c3)c1)n2CC(C)(C)O` [I-033]: the IC50 in test [1] (100 μM ATP) was 8.6 nM; in test [2] (setting [5]), 91.6 nM; at EGFR wt (setting [7]), 9510 nM; in test [3] it was 9 nM.
`Cc1c(-c2cc(C(=O)/N=c3\[nH]c4cc(N5CCN(C)CC5)ccc4n3CC(C)(C)O)ccn2)cnn1C` [I-025]: the IC50 in test [1] (100 μM ATP) came to 27.9 nM; in test [2] (setting [5]) it was 113 nM; at EGFR wt (setting [7]), 7890 nM; in test [3], 28 nM.
For the compound `Cn1cc(-c2cc(C(=O)/N=c3\[nH]c4ccccc4n3C3CCC[S+]([O-])C3)ccn2)cn1` (stereo not drawn) [I-220], the IC50 in test [1] (5 μM ATP) came out at 2 nM; in test [2] (setting [4]), 32.7 nM; at EGFR wt (setting [6]), 2860 nM; in test [3], 59 nM.
`Cc1cc(C(=O)/N=c2\[nH]c3ccc(CN4CCN(C)CC4)cc3n2[C@H]2CC[C@@H](O)CC2)cc(-c2cnn(C)c2)n1` [I-222]: the 50% inhibitory concentration (IC50) in test [1] (5 μM ATP) was 0.2 nM; in test [2] (setting [4]) it was 0.6 nM; at EGFR wt (setting [6]), 318 nM; in test [3], 5 nM.
As for `COc1ccncc1-c1cc(C(=O)/N=c2\[nH]c3cc(C4CCN(C)CC4)ccc3n2CC(C)(C)O)ccn1` [I-028], the IC50 in test [1] (100 μM ATP) stood at 2.4 nM; in test [2] (setting [5]), 4.2 nM; on EGFR wt (setting [7]), 591 nM; in test [3], 1 nM.
For `Cc1cc(C(=O)/N=c2\[nH]c3ccc(CN4CCOCC4)cc3n2[C@H]2CC[C@@H](O)CC2)cc(-c2cnn(C)c2)n1` [I-223], the IC50 in test [1] (5 μM ATP) was 0.5 nM; in test [2] (setting [4]), 1.8 nM; on EGFR wt (setting [6]), 2020 nM; in test [3] it was 4 nM.
On to `CN1CCN(c2ccc3c(c2)[nH]/c(=N\C(=O)c2ccnc(-c4cnn(C)c4)c2)n3CC(C)(C)O)CC1` [I-022], for which the 50% inhibitory concentration (IC50) was 61.8 nM in test [1] (100 μM ATP), 169 nM in test [2] (setting [5]), 5620 nM at EGFR wt (setting [7]) and 71 nM in test [3].
Turning to `Cn1cc(-c2cc(C(=O)/N=c3\[nH]c4ccccc4n3CCC(C)(C)O)ccn2)cn1` [I-037], the IC50 is 14.2 nM in test [1] (100 μM ATP), 171 nM in test [2] (setting [5]), above 100000 nM on EGFR wt (setting [7]) and 15 nM in test [3].
The like results for `CN1CCC(c2ccc3c(c2)[nH]/c(=N\C(=O)c2ccnc(-c4cccnc4)c2)n3C2CCCC2)CC1` [I-011] were, in that order, 2.5 nM, 27.7 nM, 7060 nM and 77 nM.
In the case of `Cc1cc(C(=O)/N=c2\[nH]c3ccc(C4CCN(C)CC4)cc3n2[C@H]2CC[C@@H](O)CC2)cc(-c2cnn(C)c2)n1` [I-225], the IC50 in test [1] (5 μM ATP) stood at 0.2 nM; in test [2] (setting [4]) it was 0.4 nM; on EGFR wt (setting [6]), 162 nM; in test [3], 2 nM.
For `Cn1cc(-c2cc(C(=O)/N=c3\[nH]c4ccccc4n3[C@H]3CC[C@@H](O)CC3)cc(C#N)n2)cn1` [I-136], the IC50 in test [1] (5 μM ATP) is 0.2 nM; in test [2] (setting [4]), 0.8 nM; in test [2] (setting [5]), 31.6 nM; at EGFR wt (setting [6]), 164 nM; on EGFR wt (setting [7]), above 100000 nM; in test [3] it was 2 nM.
As for `Cc1cc(C(=O)/N=c2\[nH]c3ccc(CN4CCN(C)CC4)cc3n2C2CCCCC2)cc(-c2cnn(C)c2)n1` [I-224], the IC50 stood at 0.2 nM in test [1] (5 μM ATP), 0.5 nM in test [2] (setting [4]), 267 nM at EGFR wt (setting [6]) and 3 nM in test [3].
Consider `CN1CCC(c2ccc3c(c2)[nH]/c(=N\C(=O)c2ccnc(-c4cnn(C)c4)c2)n3C2CCCC2)CC1` [I-010], for which the concentration for half-maximal inhibition (IC50) was 2.9 nM in test [1] (100 μM ATP), 17.4 nM in test [2] (setting [5]), 5110 nM on EGFR wt (setting [7]) and 20 nM in test [3].
The like results for `Cn1cc(-c2cc(C(=O)/N=c3\[nH]c4ccccc4n3CC(C)(C)CO)ccn2)cn1` [I-038] were, in that order, 15.8 nM, 234 nM, 40800 nM and 27 nM.
Consider `Cc1cc(C(=O)/N=c2\[nH]c3ccc(CN4CCOCC4)cc3n2C2CCCCC2)cc(-c2cnn(C)c2)n1` [I-221], for which the IC50 in test [1] (5 μM ATP) turned out to be 0.4 nM; in test [2] (setting [4]) it was 2 nM; at EGFR wt (setting [6]), 2050 nM; in test [3], 5 nM.
Regarding `Cn1cc(-c2cc(C(=O)/N=c3\[nH]c4ccccc4n3[C@H]3CC[C@@H](O)C3)ccn2)cn1` [I-009], the IC50 in test [1] (100 μM ATP) worked out at 49 nM; in test [2] (setting [5]) it was 184 nM; on EGFR wt (setting [7]), 12400 nM; in test [3], 30 nM.
With `CC(=O)N1CCC(c2ccc3c(c2)[nH]/c(=N\C(=O)c2ccnc(-c4cnn(C)c4)c2)n3C2CCCC2)CC1` [I-008], the IC50 is 5 nM in test [1] (100 μM ATP); 1.5 nM in test [2] (setting [4]); 39.6 nM in test [2] (setting [5]); 185 nM at EGFR wt (setting [6]); above 4000 nM on EGFR wt (setting [7]); 6 nM in test [3].
For `Cn1cc(-c2cc(C(=O)/N=c3\[nH]c4ccccc4n3[C@H]3CC[C@H](O)C3)ccn2)cn1` [I-013], the IC50 amounted to 18.4 nM in test [1] (100 μM ATP), 76.5 nM in test [2] (setting [5]), 3770 nM at EGFR wt (setting [7]) and 13 nM in test [3].
Regarding `CC(=O)N1CCC(c2ccc3c(c2)[nH]/c(=N\C(=O)c2ccnc(-c4cnn(C)c4)c2)n3[C@H]2CC[C@@H](O)CC2)CC1` [I-219], the IC50 in test [1] (5 μM ATP) is 0.1 nM; in test [2] (setting [4]), 0.4 nM; at EGFR wt (setting [6]), 25.8 nM; in test [3], 2 nM.
For the compound `COC(=O)Cc1ccc2c(c1)[nH]/c(=N\C(=O)c1ccnc(-c3cccnc3)c1)n2CC(C)(C)O` [I-054], the concentration for half-maximal inhibition (IC50) stood at 4.1 nM in test [1] (100 μM ATP), 104 nM in test [2] (setting [5]), 79700 nM at EGFR wt (setting [7]) and 7 nM in test [3].
For the compound `Cc1cc(C(=O)/N=c2\[nH]c3ccccc3n2[C@H]2CC[C@@H](O)CC2)cc(-c2cnn(C)c2)n1` [I-143], the concentration for half-maximal inhibition (IC50) in test [1] (5 μM ATP) was 0.4 nM; in test [2] (setting [4]), 1.9 nM; in test [2] (setting [5]), 104 nM; at EGFR wt (setting [6]), 2180 nM; at EGFR wt (setting [7]), above 100000 nM; in test [3], 3 nM.

In general, IC50 refers to the concentration that gives 50% inhibition.
